The values that follow come from article PMC9079729, “Conservation of the conformational dynamics and ligand binding within M49 enzyme family” (RSC Advances, 2018).

SMILES strings stand for the structures. pKi: −log10 of the molar value. Residues, ends and D or L forms follow the SMILES beside them.

In the experiment the target is T1, CaDPP III (Caldithrix abyssi, UniProt H1XW48).
T1 construct: made in house; host or cells: E. coli
T1 sequence (H1XW48 19-558): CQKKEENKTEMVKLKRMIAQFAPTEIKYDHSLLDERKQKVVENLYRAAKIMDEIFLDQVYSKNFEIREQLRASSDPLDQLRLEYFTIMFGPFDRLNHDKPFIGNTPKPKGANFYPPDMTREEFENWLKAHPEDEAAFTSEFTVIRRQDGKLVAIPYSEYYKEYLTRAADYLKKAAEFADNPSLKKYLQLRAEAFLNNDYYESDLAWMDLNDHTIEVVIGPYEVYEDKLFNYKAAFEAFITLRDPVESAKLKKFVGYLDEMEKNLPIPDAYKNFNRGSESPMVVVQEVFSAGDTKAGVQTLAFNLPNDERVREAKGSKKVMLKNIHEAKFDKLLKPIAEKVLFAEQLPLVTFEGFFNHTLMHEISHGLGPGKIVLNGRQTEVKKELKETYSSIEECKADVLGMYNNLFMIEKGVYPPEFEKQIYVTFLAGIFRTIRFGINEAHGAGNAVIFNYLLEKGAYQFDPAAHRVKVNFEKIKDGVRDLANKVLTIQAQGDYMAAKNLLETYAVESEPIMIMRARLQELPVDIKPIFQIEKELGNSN
The experiment can be described thus: Inhibition of DPP III hydrolysis of Arg2-2NA by tynorphin. It counts as biochemical. Conditions: substrate Arg2-2NA, from initial hydrolysis rates, eq. 1. On the procedure: The Km values for hydrolysis of fluorogenic substrate Arg2-2NA were determined at pH 7.4 (20 mM Tris–HCl buffer) and at 25 °C, from the initial reaction rates as previously described.[26]
Enzyme inhibition studies with tynorphin were performed using the Arg2-2NA as a substrate, according to Baršun et al.[36] The inhibition constant, Ki, was calculated according to the equation:1 Ki = i/(v0/vi − 1)·Km/(Km + s)where v0 and vi are the initial hydrolysis rates of Arg2-2NA (given in concentration s) catalyzed by DPP III in the absence and presence of inhibitor concentration (i), and Km is the Michaelis constant.

With `CC(C)[C@H](N)C(=O)N[C@H](C(=O)N[C@@H](Cc1ccc(O)cc1)C(=O)N1CCC[C@H]1C(=O)N[C@@H](Cc1c[nH]c2ccccc12)C(=O)O)C(C)C` [tynorphin] (H-VVYPW-OH), the negative-log Ki (pKi) was 4.78.
